{"source": "the NIST ThermoML archive (doi:10.1021/je800664z)", "key": {"[1]": {"assay": "refractive index (Na D-line) (dimensionless)", "settings": "101.33 kPa, Liquid, Standard Abbe refractometry"}, "[2]": {"settings": "for surface tension liquid-gas: Capillary rise; for mass density / viscosity: 101 kPa, Liquid"}, "[3]": {"assay": "xn = mol fraction of the nth substance listed", "settings": "x2 = 0; for surface tension liquid-gas: Capillary rise; for mass density / viscosity: 101 kPa, Liquid"}, "[4]": {"assay": "refractive index (Na D-line) (dimensionless); xn = mol fraction of the nth substance listed", "settings": "101 kPa, Liquid, Standard Abbe refractometry, x2 = 0"}}, "note": "Numbers after ± are expanded uncertainties."}
{"smiles": "C1COCO1", "note": "[1,3-dioxolane]", "values": [{"measurement": "refractive index", "setting": "[1]; 288.15 K", "result": "1.40252 ± 0.00033"}, {"measurement": "refractive index", "setting": "[1]; 298.15 K", "result": "1.39795 ± 0.00033"}, {"measurement": "refractive index", "setting": "[1]; 308.15 K", "result": "1.39322 ± 0.00033"}, {"measurement": "surface tension liquid-gas", "setting": "[2]; 288.15 K", "result": "34.37 ± 0.15", "unit": "mN/m"}, {"measurement": "mass density", "setting": "[2]; 288.15 K", "result": "1071.24 ± 0.29", "unit": "kg/m3"}, {"measurement": "viscosity", "setting": "[2]; 288.15 K", "result": "0.667 ± 0.013", "unit": "mPa·s"}, {"measurement": "surface tension liquid-gas", "setting": "[2]; 298.15 K", "result": "32.55 ± 0.15", "unit": "mN/m"}, {"measurement": "mass density", "setting": "[2]; 298.15 K", "result": "1059.29 ± 0.27", "unit": "kg/m3"}, {"measurement": "viscosity", "setting": "[2]; 298.15 K", "result": "0.596 ± 0.012", "unit": "mPa·s"}, {"measurement": "surface tension liquid-gas", "setting": "[2]; 308.15 K", "result": "30.67 ± 0.14", "unit": "mN/m"}, {"measurement": "mass density", "setting": "[2]; 308.15 K", "result": "1046.85 ± 0.25", "unit": "kg/m3"}, {"measurement": "viscosity", "setting": "[2]; 308.15 K", "result": "0.535 ± 0.011", "unit": "mPa·s"}]}
{"smiles": "CC(C)CC(C)(C)C", "note": "[2,2,4-trimethylpentane]", "values": [{"measurement": "refractive index", "setting": "[1]; 288.15 K", "result": "1.39408 ± 0.00032"}, {"measurement": "refractive index", "setting": "[1]; 298.15 K", "result": "1.38916 ± 0.00032"}, {"measurement": "refractive index", "setting": "[1]; 308.15 K", "result": "1.38497 ± 0.00032"}, {"measurement": "surface tension liquid-gas", "setting": "[2]; 288.15 K", "result": "19.18 ± 0.12", "unit": "mN/m"}, {"measurement": "mass density", "setting": "[2]; 288.15 K", "result": "696.1 ± 0.61", "unit": "kg/m3"}, {"measurement": "viscosity", "setting": "[2]; 288.15 K", "result": "0.537 ± 0.011", "unit": "mPa·s"}, {"measurement": "surface tension liquid-gas", "setting": "[2]; 298.15 K", "result": "18.33 ± 0.12", "unit": "mN/m"}, {"measurement": "mass density", "setting": "[2]; 298.15 K", "result": "687.95 ± 0.62", "unit": "kg/m3"}, {"measurement": "viscosity", "setting": "[2]; 298.15 K", "result": "0.481 ± 0.011", "unit": "mPa·s"}, {"measurement": "surface tension liquid-gas", "setting": "[2]; 308.15 K", "result": "17.35 ± 0.12", "unit": "mN/m"}, {"measurement": "mass density", "setting": "[2]; 308.15 K", "result": "679.62 ± 0.63", "unit": "kg/m3"}, {"measurement": "viscosity", "setting": "[2]; 308.15 K", "result": "0.434 ± 0.01", "unit": "mPa·s"}]}
{"smiles": "CC(C)CC(C)(C)C", "note": "[2,2,4-trimethylpentane] + C1COCO1", "values": [{"measurement": "surface tension liquid-gas", "setting": "[3]; 288.15 K", "result": "19.18 ± 0.12", "unit": "mN/m"}, {"measurement": "mass density", "setting": "[3]; 288.15 K", "result": "696.1 ± 0.61", "unit": "kg/m3"}, {"measurement": "viscosity", "setting": "[3]; 288.15 K", "result": "0.537 ± 0.011", "unit": "mPa·s"}, {"measurement": "surface tension liquid-gas", "setting": "[3]; 298.15 K", "result": "18.33 ± 0.12", "unit": "mN/m"}, {"measurement": "mass density", "setting": "[3]; 298.15 K", "result": "687.95 ± 0.62", "unit": "kg/m3"}, {"measurement": "viscosity", "setting": "[3]; 298.15 K", "result": "0.481 ± 0.011", "unit": "mPa·s"}, {"measurement": "surface tension liquid-gas", "setting": "[3]; 308.15 K", "result": "17.35 ± 0.12", "unit": "mN/m"}, {"measurement": "mass density", "setting": "[3]; 308.15 K", "result": "679.62 ± 0.63", "unit": "kg/m3"}, {"measurement": "viscosity", "setting": "[3]; 308.15 K", "result": "0.434 ± 0.01", "unit": "mPa·s"}, {"measurement": "refractive index", "setting": "[4]; 288.15 K", "result": "1.39408 ± 0.00032"}, {"measurement": "refractive index", "setting": "[4]; 298.15 K", "result": "1.38916 ± 0.00032"}, {"measurement": "refractive index", "setting": "[4]; 308.15 K", "result": "1.38497 ± 0.00032"}]}
{"smiles": "CC(C)O", "note": "[propan-2-ol]", "values": [{"measurement": "refractive index", "setting": "[1]; 288.15 K", "result": "1.37933 ± 0.00033"}, {"measurement": "refractive index", "setting": "[1]; 298.15 K", "result": "1.37515 ± 0.00033"}, {"measurement": "refractive index", "setting": "[1]; 308.15 K", "result": "1.37061 ± 0.00033"}, {"measurement": "surface tension liquid-gas", "setting": "[2]; 288.15 K", "result": "21.75 ± 0.13", "unit": "mN/m"}, {"measurement": "mass density", "setting": "[2]; 288.15 K", "result": "789.53 ± 0.48", "unit": "kg/m3"}, {"measurement": "viscosity", "setting": "[2]; 288.15 K", "result": "2.849 ± 0.046", "unit": "mPa·s"}, {"measurement": "surface tension liquid-gas", "setting": "[2]; 298.15 K", "result": "20.9 ± 0.13", "unit": "mN/m"}, {"measurement": "mass density", "setting": "[2]; 298.15 K", "result": "781.16 ± 0.5", "unit": "kg/m3"}, {"measurement": "viscosity", "setting": "[2]; 298.15 K", "result": "2.043 ± 0.033", "unit": "mPa·s"}, {"measurement": "surface tension liquid-gas", "setting": "[2]; 308.15 K", "result": "20.17 ± 0.13", "unit": "mN/m"}, {"measurement": "mass density", "setting": "[2]; 308.15 K", "result": "772.52 ± 0.51", "unit": "kg/m3"}, {"measurement": "viscosity", "setting": "[2]; 308.15 K", "result": "1.541 ± 0.025", "unit": "mPa·s"}]}
{"smiles": "CC(C)O", "note": "[propan-2-ol] + C1COCO1", "values": [{"measurement": "surface tension liquid-gas", "setting": "[3]; 288.15 K", "result": "21.75 ± 0.13", "unit": "mN/m"}, {"measurement": "mass density", "setting": "[3]; 288.15 K", "result": "789.53 ± 0.48", "unit": "kg/m3"}, {"measurement": "viscosity", "setting": "[3]; 288.15 K", "result": "2.849 ± 0.046", "unit": "mPa·s"}, {"measurement": "surface tension liquid-gas", "setting": "[3]; 298.15 K", "result": "20.9 ± 0.13", "unit": "mN/m"}, {"measurement": "mass density", "setting": "[3]; 298.15 K", "result": "781.16 ± 0.5", "unit": "kg/m3"}, {"measurement": "viscosity", "setting": "[3]; 298.15 K", "result": "2.043 ± 0.033", "unit": "mPa·s"}, {"measurement": "surface tension liquid-gas", "setting": "[3]; 308.15 K", "result": "20.17 ± 0.13", "unit": "mN/m"}, {"measurement": "mass density", "setting": "[3]; 308.15 K", "result": "772.52 ± 0.51", "unit": "kg/m3"}, {"measurement": "viscosity", "setting": "[3]; 308.15 K", "result": "1.541 ± 0.025", "unit": "mPa·s"}, {"measurement": "refractive index", "setting": "[4]; 288.15 K", "result": "1.37933 ± 0.00033"}, {"measurement": "refractive index", "setting": "[4]; 298.15 K", "result": "1.37515 ± 0.00033"}, {"measurement": "refractive index", "setting": "[4]; 308.15 K", "result": "1.37061 ± 0.00033"}]}
